Data: publication PMC12514245, “Impaired migration and lung invasion of human melanoma by a novel small molecule targeting the transmembrane domain of death receptor p75^NTR” (EMBO Molecular Medicine, 2025)
“And” between values parts separate entries of the source, which are not always exact repeats. Equal values may be shown once.

What was measured:
[1] = test system: A875 shp75 cells; test: Filopodia per cell (phalloidin staining), A875 shp75; assay type: cell-based, human; details: for filopodia per cell (mean of 3 experiments) / filopodia per cell (mean of one experiment): A875 shp75; for filopodia per cell (mean of one experiment): EXP1-EXP3
Description: For assessment of actin filaments, A875 cells were plated on glass coverslips in 24-well plate at a confluency of 3 × 10^4 cells/well. One day after plating, the cells were treated with 1 μM or 5 μM Np75-4A22 and NGF (100 ng/ml) or PBS for 24 h. Cells were fixed in 4% paraformaldehyde, permeabilized in 0.1% Triton-X-100, stained with Phalloidin-iFluor 488 (Abcam) at 1:2000 dilution and DAPI for 1 h. Coverslips were mounted and visualized in a laser confocal microscope.

[2] = test system: A875 NT cells; test: Wound healing cell motility assay, A875 NT; assay type: cell-based, human; details: for Fold (wound area) / Wound area (Fold): A875 NT; for Fold (wound area): 0.75uM
Description: For wound healing assay, cells were grown until confluency and subjected to a wound across the cell mono-layer. Cells were then incubated with serum-free media either with DMSO or a small molecule (with or without 5 µM Q_VD_poH) and imaged at specific time-points. Cell migration is reflected as fold change in wound area over time.

[3] = A875 shp75, EXP3, 1 uM 4A22 + 100 ng/ml NGF
[4] = A875 shp75 cells, EXP1, 1 uM 4A22, wells 1-4
[5] = A875 shp75 cells, EXP1, 5 uM 4A22 + 100 ng/ml NGF, wells 1-4
[6] = A875 shp75 cells, EXP2, 1 uM 4A22 + 100 ng/ml NGF, wells 1-4
[7] = A875 shp75 cells, EXP2, 5 uM 4A22 + 100 ng/ml NGF, wells 1-4
[8] = A875 shp75 cells, EXP2, 5 uM 4A22, wells 1-4

SMILES: Cc1cccc(-c2cncc(Nc3ccc(Br)c(Cl)c3Cl)n2)c1C [Np75-4A22]
- filopodia per cell, compound alone ([1]; 1 or 5 μM): no effects per se
- filopodia per cell (single image) [1, 3]: 35
- filopodia per cell (well mean) [1, 3]: 35.0833 and 29.3333 and 46.5 and 31.1667
- filopodia per cell (single image) ([1]; A875 shp75, EXP3, 5 uM 4A22): 35
- filopodia per cell (well mean) ([1]; A875 shp75, EXP3, 5 uM 4A22): 26.25 and 40.3333 and 46.1111 and 41.3333
- filopodia per cell (well mean) ([1]; A875 shp75, EXP3, 5 uM 4A22 + 100 ng/ml NGF): 35.1667 and 32.8333 and 43.3889 and 37.5
- filopodia per cell (mean of 3 experiments) ([1]; 100ng/ml NGF&1uM 4A22): 37.2384
- filopodia per cell (mean of one experiment) ([1]; 100ng/ml NGF&1uM 4A22): 38.132 and 38.0625 and 35.5208
- filopodia per cell (mean of 3 experiments) ([1]; 100ng/ml NGF&5uM 4A22): 37.6510
- filopodia per cell (mean of one experiment) ([1]; 100ng/ml NGF&5uM 4A22): 35.6615 and 40.0695 and 37.2222
- filopodia per cell (mean of 3 experiments) ([1]; 1uM 4A22): 34.8819
- filopodia per cell (mean of one experiment) ([1]; 1uM 4A22): 30.6458 and 39.4583 and 34.5417
- filopodia per cell (mean of 3 experiments) ([1]; 5uM 4A22): 36.6829
- filopodia per cell (mean of one experiment) ([1]; 5uM 4A22): 35.8958 and 35.6458 and 38.5069
- filopodia per cell (well mean) ([1]; A875 shp75 cells, EXP1, 1 uM 4A22 + 100 ng/ml NGF, wells 1-4): 34.0833 and 42.6667 and 40.1111 and 35.6667
- filopodia per cell (single image) [1, 4]: 35
- filopodia per cell (well mean) [1, 4]: 28.25 and 31.6667 and 30.4167 and 32.25
- filopodia per cell (single image) [1, 5]: 35
- filopodia per cell (well mean) [1, 5]: 38.8333 and 30.1667 and 37.3125 and 36.3333
- filopodia per cell (well mean) ([1]; A875 shp75 cells, EXP1, 5 uM 4A22, wells 1-4): 36.5 and 34.5 and 32.75 and 39.8333
- filopodia per cell (single image) [1, 6]: 35
- filopodia per cell (well mean) [1, 6]: 43.1667 and 38 and 39.3333 and 31.75
- filopodia per cell (well mean) ([1]; A875 shp75 cells, EXP2, 1 uM 4A22, wells 1-4): 35.6667 and 37.1667 and 36.6667 and 48.3333
- filopodia per cell (single image) [1, 7]: 35
- filopodia per cell (well mean) [1, 7]: 43.6667 and 38.1667 and 45.6111 and 32.8333
- filopodia per cell (single image) [1, 8]: 35
- filopodia per cell (well mean) [1, 8]: 36.5 and 31 and 38.1667 and 36.9167
- Fold (wound area) ([2]; 0 h, Average): 1.000 Fold
- Fold (wound area) ([2]; 0 h, n1): 1.000 Fold
- Fold (wound area) ([2]; 0 h, n2): 1.000 Fold
- Fold (wound area) ([2]; 0 h, n3): 1.000 Fold
- Fold (wound area) ([2]; 3 h, Average): 0.916 Fold
- Fold (wound area) ([2]; 3 h, n1): 0.908 Fold
- Fold (wound area) ([2]; 3 h, n2): 0.920 Fold
- Fold (wound area) ([2]; 3 h, n3): 0.920 Fold
- Fold (wound area) ([2]; 6 h, Average): 0.871 Fold
- Fold (wound area) ([2]; 6 h, n1): 0.867 Fold
- Fold (wound area) ([2]; 6 h, n2): 0.870 Fold
- Fold (wound area) ([2]; 6 h, n3): 0.875 Fold
- Fold (wound area) ([2]; 9 h, Average): 0.851 Fold
- Fold (wound area) ([2]; 9 h, n1): 0.821 Fold
- Fold (wound area) ([2]; 9 h, n2): 0.862 Fold
- Fold (wound area) ([2]; 9 h, n3): 0.870 Fold
- Fold (wound area) ([2]; 12 h, Average): 0.799 Fold
- Fold (wound area) ([2]; 12 h, n1): 0.783 Fold
- Fold (wound area) ([2]; 12 h, n2): 0.824 Fold
- Fold (wound area) ([2]; 12 h, n3): 0.790 Fold
- Fold (wound area) ([2]; 15 h, Average): 0.781 Fold
- Fold (wound area) ([2]; 15 h, n1): 0.755 Fold
- Fold (wound area) ([2]; 15 h, n2): 0.799 Fold
- Fold (wound area) ([2]; 15 h, n3): 0.789 Fold
- Fold (wound area) ([2]; 18 h, Average): 0.759 Fold
- Fold (wound area) ([2]; 18 h, n1): 0.732 Fold
- Fold (wound area) ([2]; 18 h, n2): 0.791 Fold
- Fold (wound area) ([2]; 18 h, n3): 0.755 Fold
- Fold (wound area) ([2]; 21 h, Average): 0.739 Fold
- Fold (wound area) ([2]; 21 h, n1): 0.694 Fold
- Fold (wound area) ([2]; 21 h, n2): 0.751 Fold
- Fold (wound area) ([2]; 21 h, n3): 0.773 Fold
- Fold (wound area) ([2]; 24 h, Average): 0.707 Fold
- Fold (wound area) ([2]; 24 h, n1): 0.674 Fold
- Fold (wound area) ([2]; 24 h, n2): 0.730 Fold
- Fold (wound area) ([2]; 24 h, n3): 0.715 Fold
- Wound area (Fold) ([2]; 1uM, 0 h, Mean): 1.000 Fold
- Wound area (Fold) ([2]; 1uM, 0 h, n1): 0.9625 Fold
- Wound area (Fold) ([2]; 1uM, 0 h, n2): 0.9804 Fold
- Wound area (Fold) ([2]; 1uM, 0 h, n3): 1.057 Fold
- Wound area (Fold) ([2]; 1uM, 3 h, Mean): 0.967 Fold
- Wound area (Fold) ([2]; 1uM, 3 h, n1): 0.9475 Fold
- Wound area (Fold) ([2]; 1uM, 3 h, n2): 1.012 Fold
- Wound area (Fold) ([2]; 1uM, 3 h, n3): 0.9416 Fold
- Wound area (Fold) ([2]; 1uM, 6 h, Mean): 0.905 Fold
- Wound area (Fold) ([2]; 1uM, 6 h, n1): 0.8734 Fold
- Wound area (Fold) ([2]; 1uM, 6 h, n2): 0.9482 Fold
- Wound area (Fold) ([2]; 1uM, 6 h, n3): 0.8944 Fold
- Wound area (Fold) ([2]; 1uM, 9 h, Mean): 0.855 Fold
- Wound area (Fold) ([2]; 1uM, 9 h, n1): 0.8188 Fold
- Wound area (Fold) ([2]; 1uM, 9 h, n2): 0.9061 Fold
- Wound area (Fold) ([2]; 1uM, 9 h, n3): 0.8389 Fold
- Wound area (Fold) ([2]; 1uM, 12 h, Mean): 0.827 Fold
- Wound area (Fold) ([2]; 1uM, 12 h, n1): 0.7941 Fold
- Wound area (Fold) ([2]; 1uM, 12 h, n2): 0.8768 Fold
- Wound area (Fold) ([2]; 1uM, 12 h, n3): 0.8105 Fold
- Wound area (Fold) ([2]; 1uM, 15 h, Mean): 0.795 Fold
- Wound area (Fold) ([2]; 1uM, 15 h, n1): 0.7522 Fold
- Wound area (Fold) ([2]; 1uM, 15 h, n2): 0.8472 Fold
- Wound area (Fold) ([2]; 1uM, 15 h, n3): 0.7844 Fold
- Wound area (Fold) ([2]; 1uM, 18 h, Mean): 0.773 Fold
- Wound area (Fold) ([2]; 1uM, 18 h, n1): 0.739 Fold
- Wound area (Fold) ([2]; 1uM, 18 h, n2): 0.8198 Fold
- Wound area (Fold) ([2]; 1uM, 18 h, n3): 0.7589 Fold
- Wound area (Fold) ([2]; 1uM, 21 h, Mean): 0.762 Fold
- Wound area (Fold) ([2]; 1uM, 21 h, n1): 0.7242 Fold
- Wound area (Fold) ([2]; 1uM, 21 h, n2): 0.8105 Fold
- Wound area (Fold) ([2]; 1uM, 21 h, n3): 0.7528 Fold
- Wound area (Fold) ([2]; 1uM, 24 h, Mean): 0.743 Fold
- Wound area (Fold) ([2]; 1uM, 24 h, n1): 0.7122 Fold
- Wound area (Fold) ([2]; 1uM, 24 h, n2): 0.7843 Fold
- Wound area (Fold) ([2]; 1uM, 24 h, n3): 0.7318 Fold
- Wound area (Fold) ([2]; 2uM, 0 h, Mean): 1.000 Fold
- Wound area (Fold) ([2]; 2uM, 0 h, n1): 1.119 Fold
- Wound area (Fold) ([2]; 2uM, 0 h, n2): 0.971 Fold
- Wound area (Fold) ([2]; 2uM, 0 h, n3): 0.910 Fold
- Wound area (Fold) ([2]; 2uM, 3 h, Mean): 0.939 Fold
- Wound area (Fold) ([2]; 2uM, 3 h, n1): 0.920 Fold
- Wound area (Fold) ([2]; 2uM, 3 h, n2): 0.934 Fold
- Wound area (Fold) ([2]; 2uM, 3 h, n3): 0.964 Fold
- Wound area (Fold) ([2]; 2uM, 6 h, Mean): 0.916 Fold
- Wound area (Fold) ([2]; 2uM, 6 h, n1): 0.889 Fold
- Wound area (Fold) ([2]; 2uM, 6 h, n2): 0.924 Fold
- Wound area (Fold) ([2]; 2uM, 6 h, n3): 0.935 Fold
- Wound area (Fold) ([2]; 2uM, 9 h, Mean): 0.883 Fold
- Wound area (Fold) ([2]; 2uM, 9 h, n1): 0.869 Fold
- Wound area (Fold) ([2]; 2uM, 9 h, n2): 0.889 Fold
- Wound area (Fold) ([2]; 2uM, 9 h, n3): 0.891 Fold
- Wound area (Fold) ([2]; 2uM, 12 h, Mean): 0.872 Fold
- Wound area (Fold) ([2]; 2uM, 12 h, n1): 0.845 Fold
- Wound area (Fold) ([2]; 2uM, 12 h, n2): 0.886 Fold
- Wound area (Fold) ([2]; 2uM, 12 h, n3): 0.885 Fold
- Wound area (Fold) ([2]; 2uM, 15 h, Mean): 0.864 Fold
- Wound area (Fold) ([2]; 2uM, 15 h, n1): 0.827 Fold
- Wound area (Fold) ([2]; 2uM, 15 h, n2): 0.886 Fold
- Wound area (Fold) ([2]; 2uM, 15 h, n3): 0.880 Fold
- Wound area (Fold) ([2]; 2uM, 18 h, Mean): 0.859 Fold
- Wound area (Fold) ([2]; 2uM, 18 h, n1): 0.819 Fold
- Wound area (Fold) ([2]; 2uM, 18 h, n2): 0.879 Fold
- Wound area (Fold) ([2]; 2uM, 18 h, n3): 0.879 Fold
- Wound area (Fold) ([2]; 2uM, 21 h, Mean): 0.856 Fold
- Wound area (Fold) ([2]; 2uM, 21 h, n1): 0.813 Fold
- Wound area (Fold) ([2]; 2uM, 21 h, n2): 0.878 Fold
- Wound area (Fold) ([2]; 2uM, 21 h, n3): 0.878 Fold
- Wound area (Fold) ([2]; 2uM, 24 h, Mean): 0.847 Fold
- Wound area (Fold) ([2]; 2uM, 24 h, n1): 0.809 Fold
- Wound area (Fold) ([2]; 2uM, 24 h, n2): 0.868 Fold
- Wound area (Fold) ([2]; 2uM, 24 h, n3): 0.864 Fold
- wound healing assay ([2]; low micromolar and submicromolar concentrations): considerable inhibitory activity
